Data published in patent publication US12258328B2, “6-membered heteroaryl-containing aminopyridine compounds as EGFR inhibitors” (YUHAN CORPORATION, priority 2021, dated 2025).
Where two headings read alike, the source gives them in different places.

What was measured:
EGFR del19/T790M/C797S = EGFR del19/T790M/C797S (Homo sapiens, UniProt P00533, C797S/DEL746-750/T790M); assay: Biochemical EGFR kinase assay (Lance Ultra TR-FRET), triple mutant del19/T790M/C797S
Outline: (§1)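 Enzyme reactions lasted 1 hour at room temperature with test compounds between 0.003 and 10 μM, followed by 10 mM EDTA quench.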

EGFR L858R/T790M/C797S = EGFR L858R/T790M/C797S (Homo sapiens, UniProt P00533, C797S/L858R/T790M); assay: Biochemical EGFR kinase assay (Lance Ultra TR-FRET), triple mutant L858R/T790M/C797S
Outline: as §1

EGFR del19/C797S = EGFR del19/C797S (Homo sapiens, UniProt P00533, C797S/DEL746-750); assay: Biochemical EGFR kinase assay (Lance Ultra TR-FRET), double mutant del19/C797S
Outline: as §1

EGFR L858R/C797S = EGFR L858R/C797S (Homo sapiens, UniProt P00533, C797S/L858R); assay: Biochemical EGFR kinase assay (Lance Ultra TR-FRET), double mutant L858R/C797S
Outline: as §1

EGFR wildtype = EGFR wildtype (Homo sapiens, UniProt P00533); assay: Biochemical EGFR kinase assay (Lance Ultra TR-FRET), wildtype
Outline: as §1

[1] = ATP at Km, read-out: IC50 del19/T790M/C797S, Km ATP
[2] = IC50 del19/T790M/C797S, 100 μM ATP
[3] = ATP at Km, read-out: IC50 L858R/T790M/C797S, Km ATP
[4] = ATP at Km, read-out: IC50 del19/C797S, Km ATP
[5] = ATP at Km, read-out: IC50 L858R/C797S, Km ATP
[6] = ATP at Km, read-out: IC50 WT, Km ATP
[7] = Km ATP, read-out: IC50 del19/T790M/C797S (nM) Km ATP
[8] = Km ATP, read-out: IC50 L858R/T790M/C797S (nM) Km ATP
[9] = Km ATP, read-out: IC50 del19/C797S (nM) Km ATP
[10] = Km ATP, read-out: IC50 L858R/C797S (nM) Km ATP
[11] = Km ATP, read-out: IC50 WT (nM) Km ATP

Sequence of EGFR wildtype (P00533 25-1210): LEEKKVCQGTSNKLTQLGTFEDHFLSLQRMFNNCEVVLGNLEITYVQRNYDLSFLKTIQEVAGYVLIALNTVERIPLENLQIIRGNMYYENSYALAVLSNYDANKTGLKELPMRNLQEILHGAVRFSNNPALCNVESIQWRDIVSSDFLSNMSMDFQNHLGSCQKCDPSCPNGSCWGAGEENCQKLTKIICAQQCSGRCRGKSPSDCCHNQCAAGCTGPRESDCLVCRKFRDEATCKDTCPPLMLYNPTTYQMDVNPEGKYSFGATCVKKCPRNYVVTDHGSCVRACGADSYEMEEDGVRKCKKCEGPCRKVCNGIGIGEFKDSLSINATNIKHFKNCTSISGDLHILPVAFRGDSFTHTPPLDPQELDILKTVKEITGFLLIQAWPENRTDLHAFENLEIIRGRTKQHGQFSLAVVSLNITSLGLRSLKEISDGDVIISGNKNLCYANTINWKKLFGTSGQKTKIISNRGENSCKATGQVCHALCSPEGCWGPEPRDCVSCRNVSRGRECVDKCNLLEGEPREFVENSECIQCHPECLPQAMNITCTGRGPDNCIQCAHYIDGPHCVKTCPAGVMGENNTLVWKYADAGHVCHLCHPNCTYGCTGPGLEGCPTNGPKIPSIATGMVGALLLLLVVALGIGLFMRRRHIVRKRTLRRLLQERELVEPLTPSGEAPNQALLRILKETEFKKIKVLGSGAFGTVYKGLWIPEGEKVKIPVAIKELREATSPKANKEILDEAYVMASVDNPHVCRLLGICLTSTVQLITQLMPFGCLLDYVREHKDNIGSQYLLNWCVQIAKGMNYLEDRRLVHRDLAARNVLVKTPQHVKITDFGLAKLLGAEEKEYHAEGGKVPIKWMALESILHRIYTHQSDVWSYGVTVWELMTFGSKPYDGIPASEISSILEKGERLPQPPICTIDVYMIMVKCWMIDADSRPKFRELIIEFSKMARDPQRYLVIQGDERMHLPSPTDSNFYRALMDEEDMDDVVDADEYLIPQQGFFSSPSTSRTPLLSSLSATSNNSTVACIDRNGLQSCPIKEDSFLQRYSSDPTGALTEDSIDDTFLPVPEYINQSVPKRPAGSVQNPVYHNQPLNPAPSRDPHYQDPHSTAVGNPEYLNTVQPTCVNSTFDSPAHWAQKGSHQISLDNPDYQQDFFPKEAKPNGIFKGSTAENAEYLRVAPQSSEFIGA
Sequence of EGFR del19/T790M/C797S (P00533 with tags, fused parts or gaps DEL746-750/T790M/C797S): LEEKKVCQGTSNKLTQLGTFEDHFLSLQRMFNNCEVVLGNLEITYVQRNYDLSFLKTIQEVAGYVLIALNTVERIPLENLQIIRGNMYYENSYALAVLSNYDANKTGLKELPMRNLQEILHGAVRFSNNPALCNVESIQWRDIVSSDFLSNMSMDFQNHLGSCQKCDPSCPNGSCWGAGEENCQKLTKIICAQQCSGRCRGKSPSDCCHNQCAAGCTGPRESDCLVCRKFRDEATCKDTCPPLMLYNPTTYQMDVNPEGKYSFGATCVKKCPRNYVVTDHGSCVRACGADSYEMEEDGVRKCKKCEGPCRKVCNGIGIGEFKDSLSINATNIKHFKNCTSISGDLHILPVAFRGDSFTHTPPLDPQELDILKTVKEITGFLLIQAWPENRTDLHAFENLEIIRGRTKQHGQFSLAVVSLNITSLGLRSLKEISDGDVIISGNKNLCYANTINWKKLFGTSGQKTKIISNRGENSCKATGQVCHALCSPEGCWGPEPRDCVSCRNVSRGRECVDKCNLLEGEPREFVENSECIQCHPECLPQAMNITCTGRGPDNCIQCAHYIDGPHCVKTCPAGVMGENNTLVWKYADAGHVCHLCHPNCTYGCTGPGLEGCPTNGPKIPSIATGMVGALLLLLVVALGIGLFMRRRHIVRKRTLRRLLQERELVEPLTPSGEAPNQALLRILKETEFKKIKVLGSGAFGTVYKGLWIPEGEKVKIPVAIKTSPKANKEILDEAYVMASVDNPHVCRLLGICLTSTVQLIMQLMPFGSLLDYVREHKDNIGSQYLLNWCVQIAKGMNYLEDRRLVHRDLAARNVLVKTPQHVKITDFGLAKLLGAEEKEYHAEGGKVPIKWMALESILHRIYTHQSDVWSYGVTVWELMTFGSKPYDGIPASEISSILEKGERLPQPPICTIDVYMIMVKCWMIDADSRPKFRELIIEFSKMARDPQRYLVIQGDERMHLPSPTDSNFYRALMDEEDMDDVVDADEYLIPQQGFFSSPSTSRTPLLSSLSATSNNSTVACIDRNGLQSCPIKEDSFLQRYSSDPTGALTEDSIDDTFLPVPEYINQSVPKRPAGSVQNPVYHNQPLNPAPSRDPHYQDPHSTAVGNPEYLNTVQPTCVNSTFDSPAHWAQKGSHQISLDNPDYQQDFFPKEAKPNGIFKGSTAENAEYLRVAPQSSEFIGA
Sequence of EGFR L858R/C797S (P00533 25-1210 C797S/L858R): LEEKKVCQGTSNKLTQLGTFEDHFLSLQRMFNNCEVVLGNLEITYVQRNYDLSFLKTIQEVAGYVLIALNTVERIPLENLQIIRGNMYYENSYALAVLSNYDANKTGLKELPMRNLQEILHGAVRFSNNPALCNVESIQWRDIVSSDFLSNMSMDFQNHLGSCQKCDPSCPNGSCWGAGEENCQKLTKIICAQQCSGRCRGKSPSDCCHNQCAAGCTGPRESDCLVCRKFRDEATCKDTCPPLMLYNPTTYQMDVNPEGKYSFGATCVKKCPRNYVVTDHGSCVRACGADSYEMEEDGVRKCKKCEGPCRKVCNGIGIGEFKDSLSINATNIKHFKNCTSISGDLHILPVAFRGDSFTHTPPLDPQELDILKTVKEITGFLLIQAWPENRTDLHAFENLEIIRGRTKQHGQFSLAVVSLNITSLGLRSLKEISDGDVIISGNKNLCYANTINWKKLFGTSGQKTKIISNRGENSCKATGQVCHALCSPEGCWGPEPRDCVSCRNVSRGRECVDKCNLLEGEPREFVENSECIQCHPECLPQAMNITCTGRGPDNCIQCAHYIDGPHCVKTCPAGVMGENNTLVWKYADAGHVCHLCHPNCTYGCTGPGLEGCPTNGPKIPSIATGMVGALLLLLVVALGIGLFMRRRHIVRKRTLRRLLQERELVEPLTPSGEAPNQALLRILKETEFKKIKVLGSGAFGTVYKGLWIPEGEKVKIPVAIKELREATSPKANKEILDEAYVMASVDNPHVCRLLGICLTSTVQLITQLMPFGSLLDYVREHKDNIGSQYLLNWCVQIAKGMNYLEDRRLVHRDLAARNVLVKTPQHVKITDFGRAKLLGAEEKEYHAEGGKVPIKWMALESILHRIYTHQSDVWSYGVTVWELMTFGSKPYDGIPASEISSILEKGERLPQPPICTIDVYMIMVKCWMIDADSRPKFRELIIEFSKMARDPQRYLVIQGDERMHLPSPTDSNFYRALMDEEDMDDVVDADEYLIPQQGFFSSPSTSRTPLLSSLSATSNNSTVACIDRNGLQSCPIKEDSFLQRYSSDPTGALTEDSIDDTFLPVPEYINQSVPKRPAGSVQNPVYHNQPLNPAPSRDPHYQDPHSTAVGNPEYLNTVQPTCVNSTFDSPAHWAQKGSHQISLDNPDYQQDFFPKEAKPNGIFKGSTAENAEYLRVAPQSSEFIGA
Sequence of EGFR L858R/T790M/C797S (P00533 25-1210 T790M/C797S/L858R): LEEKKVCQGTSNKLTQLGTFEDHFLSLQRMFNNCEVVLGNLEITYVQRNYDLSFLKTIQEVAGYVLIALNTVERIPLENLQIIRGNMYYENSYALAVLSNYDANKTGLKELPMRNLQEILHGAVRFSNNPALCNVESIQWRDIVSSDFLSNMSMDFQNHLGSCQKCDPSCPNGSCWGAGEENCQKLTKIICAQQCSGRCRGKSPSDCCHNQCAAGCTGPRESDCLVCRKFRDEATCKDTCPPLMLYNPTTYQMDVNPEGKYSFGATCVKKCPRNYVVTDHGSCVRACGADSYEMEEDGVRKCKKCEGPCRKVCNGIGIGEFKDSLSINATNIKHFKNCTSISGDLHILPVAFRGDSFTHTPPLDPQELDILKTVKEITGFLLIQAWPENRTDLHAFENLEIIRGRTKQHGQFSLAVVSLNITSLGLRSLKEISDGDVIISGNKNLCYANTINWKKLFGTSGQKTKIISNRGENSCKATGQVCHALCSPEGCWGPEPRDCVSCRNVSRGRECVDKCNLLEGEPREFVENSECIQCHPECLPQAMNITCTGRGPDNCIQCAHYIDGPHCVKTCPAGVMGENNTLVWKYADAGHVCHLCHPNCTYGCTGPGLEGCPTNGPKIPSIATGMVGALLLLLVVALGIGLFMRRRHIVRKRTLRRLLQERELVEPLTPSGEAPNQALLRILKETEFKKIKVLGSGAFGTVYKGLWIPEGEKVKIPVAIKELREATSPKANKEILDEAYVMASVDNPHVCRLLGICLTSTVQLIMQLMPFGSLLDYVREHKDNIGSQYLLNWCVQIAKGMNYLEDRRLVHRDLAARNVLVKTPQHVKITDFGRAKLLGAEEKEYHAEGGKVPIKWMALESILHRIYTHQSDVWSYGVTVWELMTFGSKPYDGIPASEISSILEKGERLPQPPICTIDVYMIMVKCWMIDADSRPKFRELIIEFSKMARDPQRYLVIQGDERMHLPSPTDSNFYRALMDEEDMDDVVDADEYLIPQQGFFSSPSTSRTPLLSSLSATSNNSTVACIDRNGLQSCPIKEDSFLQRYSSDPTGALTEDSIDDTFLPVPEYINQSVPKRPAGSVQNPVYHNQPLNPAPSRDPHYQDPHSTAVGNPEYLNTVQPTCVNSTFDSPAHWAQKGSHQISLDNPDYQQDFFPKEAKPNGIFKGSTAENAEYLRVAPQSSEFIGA

Row | Structure (SMILES) | IC50 (EGFR del19/T790M/C797S; [1]) | IC50 (EGFR del19/T790M/C797S; [2]) | IC50 (EGFR L858R/T790M/C797S; [3]) | IC50 (EGFR L858R/T790M/C797S; IC50 L858R/T790M/C797S, 100 μM ATP) | IC50 (EGFR del19/C797S; [4]) | IC50 (EGFR del19/C797S; IC50 del19/C797S, 100 μM ATP) | IC50 (EGFR L858R/C797S; [5]) | IC50 (EGFR L858R/C797S; IC50 L858R/C797S, 100 μM ATP) | IC50 (EGFR wildtype; [6]) | IC50 (EGFR wildtype; IC50 WT, 100 μM ATP) | IC50 (EGFR del19/T790M/C797S; [7]) | IC50 (EGFR L858R/T790M/C797S; [8]) | IC50 (EGFR del19/C797S; [9]) | IC50 (EGFR L858R/C797S; [10]) | IC50 (EGFR wildtype; [11])
1 | CC(F)(F)c1ccc(-c2cnc(Nc3ccnc(-c4cnn(S(=O)(=O)C5CC5)c4)n3)cc2N[C@H]2CC[C@@](C)(O)CC2)nc1 [Example 292, (1s,4s)-4-((6′-((2-(1-(Cyclopropylsulfonyl)-1H-pyrazol-4-yl)pyrimidin-4-yl)amino)-5-(1,1-difluoroethyl)-[2,3′-bipyridin]-4′-yl)amino)-1-methylcyclohexan-1-ol] | 0.6 nM | 2.6 nM | 0.6 nM | 1.1 nM | 1.4 nM | 9.8 nM | 4.4 nM | 19.1 nM | 8.9 nM | 5170 nM | – | – | – | – | –
2 | C[C@]1(O)CC[C@@H](Nc2cc(Nc3ccnc(-c4cnn(S(=O)(=O)C5CC5)c4)n3)ncc2-c2cccc(CC(F)(F)F)n2)CC1 [Example 293, (1s,4s)-4-((6′-((2-(1-(Cyclopropylsulfonyl)-1H-pyrazol-4-yl)pyrimidin-4-yl)amino)-6-(2,2,2-trifluoroethyl)-[2,3′-bipyridin]-4′-yl)amino)-1-methylcyclohexan-1-ol] | 0.7 nM | 3.4 nM | 0.7 nM | – | 9.6 nM | 16.2 nM | 15.4 nM | 63 nM | 138 nM | 1540 nM | – | – | – | – | –
3 | CC(C)Nc1cc(Nc2ccnc(-c3cnn(S(=O)(=O)C4CC4)c3)n2)ncc1-c1ccc(C(O)C(F)(F)F)cn1 (centres unmarked) [Example 294, 1-(6′-((2-(1-(Cyclopropylsulfonyl)-1H-pyrazol-4-yl)pyrimidin-4-yl)amino)-4′-(isopropylamino)-[2,3′-bipyridin]-5-yl)-2,2,2-trifluoroethan-1-ol] | 9.8 nM | – | 2.3 nM | – | 60.8 nM | – | 38.5 nM | – | 28 nM | – | – | – | – | – | –
4 | CN(C)S(=O)(=O)n1cc(-c2nccc(Nc3cc(N[C@H]4CC[C@@](C)(O)CC4)c(-c4ccc(CC(F)(F)F)cn4)cn3)n2)cn1 [Example 296, 4-(4-((4′-(((1s,4s)-4-Hydroxy-4-methylcyclohexyl)amino)-5-(2,2,2-trifluoroethyl)-[2,3′-bipyridin]-6′-yl)amino)pyrimidin-2-yl)-N,N-dimethyl-1H-pyrazole-1-sulfonamide] | 4.5 nM | – | 3.7 nM | – | 17.6 nM | – | 10.1 nM | – | 89.8 nM | – | – | – | – | – | –
5 | CN(C)S(=O)(=O)n1cc(-c2nccc(Nc3cc(NC4CCC(C)(O)CC4)c(-c4ccc(C(O)C(F)(F)F)cn4)cn3)n2)cn1 (centres unmarked) [Example 297, 4-(4-((4′-(((1s,4s)-4-Hydroxy-4-methylcyclohexyl)amino)-5-(2,2,2-trifluoro-1-hydroxyethyl)-[2,3′-bipyridin]-6′-yl)amino)pyrimidin-2-yl)-N,N-dimethyl-1H-pyrazole-1-sulfonamide] | 1.6 nM | – | 1.4 nM | – | 4 nM | – | 3 nM | – | 39.9 nM | – | – | – | – | – | –
6 | CN(C)S(=O)(=O)n1cc(-c2nccc(Nc3cc(NC4CCC(C)(O)CC4)c(-c4ccc(C(C)(O)C(F)(F)F)cn4)cn3)n2)cn1 (centres unmarked) [Example 298, 4-(4-((4′-(((1s,4s)-4-Hydroxy-4-methylcyclohexyl)amino)-5-(1,1,1-trifluoro-2-hydroxypropan-2-yl)-[2,3′-bipyridin]-6′-yl)amino)pyrimidin-2-yl)-N,N-dimethyl-1H-pyrazole-1-sulfonamide] | 1.8 nM | – | 1.1 nM | – | 2.9 nM | – | 1.7 nM | – | 15.4 nM | – | – | – | – | – | –
7 | C[C@]1(O)CC[C@@H](Nc2cc(Nc3nc(-c4cnn(S(=O)(=O)C5CC5)c4)ncc3F)ncc2-c2ccc(CC(F)(F)F)cn2)CC1 [Example 299, (1s,4s)-4-((6′-((2-(1-(Cyclopropylsulfonyl)-1H-pyrazol-4-yl)-5-fluoropyrimidin-4-yl)amino)-5-(2,2,2-trifluoroethyl)-[2,3′-bipyridin]-4′-yl)amino)-1-methylcyclohexan-1-ol] | 5.7 nM | – | 3.2 nM | – | 28.6 nM | – | 8.5 nM | – | 245 nM | – | – | – | – | – | –
8 | C[C@]1(O)CC[C@@H](Nc2cc(Nc3ccnc(-c4cnn(S(=O)(=O)C5CC5)c4)n3)ncc2-c2cc(OC(F)F)ccn2)CC1 [Example 331, (1s,4s)-4-((6′-((2-(1-(Cyclopropylsulfonyl)-1H-pyrazol-4-yl)pyrimidin-4-yl)amino)-4-(difluoromethoxy)-[2,3′-bipyridin]-4′-yl)amino)-1-methylcyclohexan-1-ol] | – | – | – | – | – | – | – | – | – | – | 1.9 nM | 0.7 nM | 3.5 nM | 2.4 nM | 17.4 nM
9 | C[C@]1(O)CC[C@@H](Nc2cc(Nc3ccnc(-c4cnn(S(=O)(=O)C5CC5)c4)n3)ncc2-c2ccc(OC(F)F)cn2)CC1 [Example 332, (1s,4s)-4-((6′-((2-(1-(Cyclopropylsulfonyl)-1H-pyrazol-4-yl)pyrimidin-4-yl)amino)-5-(difluoromethoxy)-[2,3′-bipyridin]-4′-yl)amino)-1-methylcyclohexan-1-ol] | – | – | – | – | – | – | – | – | – | – | 1.6 nM | 0.7 nM | 2.4 nM | 1.8 nM | 21 nM
10 | C[C@]1(O)CC[C@@H](Nc2cc(Nc3ccnc(-c4cnn(S(=O)(=O)C5CC5)c4)n3)ncc2-c2ncccc2OCC(F)(F)F)CC1 [Example 333, (1s,4s)-4-((6′-((2-(1-(Cyclopropylsulfonyl)-1H-pyrazol-4-yl)pyrimidin-4-yl)amino)-3-(2,2,2-trifluoroethoxy)-[2,3′-bipyridin]-4′-yl)amino)-1-methylcyclohexan-1-ol] | – | – | – | – | – | – | – | – | – | – | 4.1 nM | 2.6 nM | 460 nM | 795 nM | 117 nM
11 | C[C@]1(O)CC[C@@H](Nc2cc(Nc3ccnc(-c4cnn(S(=O)(=O)C5CC5)c4)n3)ncc2-c2ncccc2OCC(F)F)CC1 [Example 334, (1s,4s)-4-((6′-((2-(1-(Cyclopropylsulfonyl)-1H-pyrazol-4-yl)pyrimidin-4-yl)amino)-3-(2,2-difluoroethoxy)-[2,3′-bipyridin]-4′-yl)amino)-1-methylcyclohexan-1-ol] | – | – | – | – | – | – | – | – | – | – | 2.1 nM | 1.4 nM | 170 nM | 191 nM | 189 nM
12 | COc1c(F)ccnc1-c1cnc(Nc2ccnc(-c3cnn(S(=O)(=O)C4CC4)c3)n2)cc1N[C@H]1CC[C@@](C)(O)CC1 [Example 335, (1s,4s)-4-((6′-((2-(1-(Cyclopropylsulfonyl)-1H-pyrazol-4-yl)pyrimidin-4-yl)amino)-4-fluoro-3-methoxy-[2,3′-bipyridin]-4′-yl)amino)-1-methylcyclohexan-1-ol] | – | – | – | – | – | – | – | – | – | – | 5.8 nM | 2.6 nM | 1840 nM | 1780 nM | 248 nM
13 | COc1c(F)ccnc1-c1cnc(Nc2ccnc(-c3cnn(CC(F)F)c3)n2)cc1N[C@H]1CC[C@@](C)(O)CC1 [Example 336, (1s,4s)-4-((6′-((2-(1-(2,2-Difluoroethyl)-1H-pyrazol-4-yl)pyrimidin-4-yl)amino)-4-fluoro-3-methoxy-[2,3′-bipyridin]-4′-yl)amino)-1-methylcyclohexan-1-ol] | – | – | – | – | – | – | – | – | – | – | 345 nM | 43.9 nM | 3820 nM | 1670 nM | 235 nM
